In patent US20190111059A1, “COMPOSITIONS AND METHODS FOR TREATING AUTISM SPECTRUM DISORDER” (Marinus Pharmaceuticals, Inc., priority 2017, published 2019):
Entries after “also recorded” stand apart in the source; their conditions may differ. Structures can show the parent of a compound that is named as a salt.

Legend:
[1] = tested on: children with non-syndromic autism spectrum disorder (ASD) and language impairment; experiment: Randomized double-blind placebo-controlled trial: verbal communication (CELF-preschool-2, CELF-4, PLS-5), primary outcome; type: in vivo, human; conditions: for Verbal communication, effect size (Cohen's d) / Verbal communication, estimated effect vs placebo / Verbal communication, 12 weeks: 2 mg kg^−1 per day; for Verbal communication, effect size (Cohen's d) / Verbal communication, estimated effect vs placebo / % Difference responders (folinic acid vs placebo) / Adjusted odds ratio of response / Number needed to treat / Unadjusted odds ratio of response / % responders / Number of responders (increase in five standardized points, verbal communication): 12 weeks; for Verbal communication, estimated effect vs placebo: mixed-model regression
Procedure: We sought to determine whether high-dose folinic acid improves verbal communication in children with non-syndromic autism spectrum disorder (ASD) and language impairment in a double-blind placebo control setting. Forty-eight children (mean age 7 years 4 months; 82% male) with ASD and language impairment were randomized to receive 12 weeks of high-dose folinic acid (2 mg kg^-1 per day, maximum 50 mg per day; n=23) or placebo (n=25). Children were subtyped by glutathione and folate receptor-α autoantibody (FRAA) status. […] FRAA status was predictive of response to treatment. […] 2012 to 22 Nov. 2013. Participants who met inclusion and exclusion criteria were screened for language impairment. Preverbal (<25 functional words) children qualified as language impaired. Otherwise, the age-appropriate version of the Clinical Evaluation of Language Fundamentals (CELF) confirmed language impairment. Language impairment was defined as a core standardized score<85 if the preschool version was used or failure on the CELF screener if other versions were used. Those confirmed to have language impairment were randomized to the folinic acid or placebo group and a fasting blood sample was obtained. Randomization was performed using a random number generator with a block size of four. The research pharmacists had exclusive access to the randomization allocation. After breakfast, the participants returned for language, developmental and behavioral assessments. Following these assessments the family was given the 12 weeks of the intervention and was instructed on its administration. Language, developmental and behavioral assessments were repeated after 12 weeks of treatment. The target dose of the intervention (INN: DL folinic acid calcium salt; USAN: leucovorin calcium) was 2 mg kg^-1 per day (maximum 50 mg per day) in two equally divided doses with half of the target dose given during the first 2 weeks. Dye-free, milk-product-free, vegetarian capsules were provided in three strengths (5, 10 and 25 mg) by Lee Silsby Compounding Pharmacy (Cleveland Heights, Ohio, USA). Certificate of analysis was provided for each capsule strength by an independent analytical service (Eagle Analytical Services, Houston, Tex., USA) for each batch of capsules produced. In all cases, potency was at least 99%. Primary outcome. Verbal communication was the primary outcome for several reasons. First, verbal communication improved in preliminary folinic acid treatment studies. Second, verbal communication in children with ASD is closely linked to parental quality of life. Third, the development of language and communication skills is associated with favorable outcomes. Instruments used were the CELF-preschool-2, CELF-4 and the Preschool Language Scale-5 (PLS-5). The standardized summary score of each instrument (mean 100, standard deviation 15) was the primary outcome measure and ranges from 50 to 150 for the PLS-5 and 45 to 155 for the CELF. The ability-appropriate instrument was selected using a structured algorithm. The goal was to select an instrument with an adequate dynamic range for assessing improvement in verbal communication. The assessment started with the most age-appropriate instrument. If the child obtained a score at the floor, the next lower ability instrument was then used. This process was repeated until a score above the floor could be obtained. The score from the final instrument was the primary outcome measure at baseline and at trial end. If the child's age exceeded the maximum age of the instrument's standardization, the maximum standardized age was used. At trial end, all instruments used during the baseline assessment were repeated in the same order to simulate the same baseline assessment experience and to minimize a potential confounder of cognitive fatigue. Studies have shown that early behavioral therapy improves verbal communication by one-standard deviation over 36 weeks. […]

[2] = tested on: children with non-syndromic autism spectrum disorder (ASD) and language impairment; experiment: Randomized placebo-controlled trial: adverse effects monitoring; type: in vivo, human
Source text: Adverse events were monitored every 3 weeks using a modification of the Dosage Record Treatment Emergent Symptom Scale. Adverse events were considered related to the treatment if they started or worsened following the start of the trial. If adverse events were persistent or severe, the parents were offered the option of halving the dose or discontinuing the intervention. The dose could only be reduced once and was never increased if reduced.
The total number of patients reporting each adverse event was compared across treatment groups using a Fisher exact test. Adverse events that were possibly, probably or definitely related to the treatments were analyzed.

[3] = antibody negative, folinic acid N = 10
[4] = antibody positive, folinic acid N = 13
[5] = glutathione high, folinic acid N = 14
[6] = glutathione low, folinic acid N = 9
[7] = folinic acid group n = 21, 12 weeks

SMILES: Nc1nc2c(c(=O)[nH]1)N(C=O)C(CNc1ccc(C(=O)N[C@@H](CCC(=O)O)C(=O)O)cc1)CN2 (mixture of isomers) [Folinic acid, DL folinic acid calcium salt]
- Verbal communication, effect size (Cohen's d) ([1]; FRAA antibody negative N=17): 0.30
- Verbal communication, estimated effect vs placebo ([1]; FRAA antibody negative N=17, calcium salt): 2.5 standardized score
- Verbal communication, estimated effect vs placebo ([1]; FRAA antibody negative N=17, listed as folinic acid, calcium salt): not significantly different
- Verbal communication, effect size (Cohen's d) ([1]; FRAA antibody positive N=31): 0.91
- Verbal communication, estimated effect vs placebo ([1]; FRAA antibody positive N=31, calcium salt): 7.3 standardized score
- Verbal communication, effect size (Cohen's d) ([1]; glutathione redox ratio high N=24): 0.46
- Verbal communication, estimated effect vs placebo ([1]; glutathione redox ratio high N=24, calcium salt): 3.0 standardized score
- Verbal communication, estimated effect vs placebo ([1]; glutathione redox ratio high N=24, listed as folinic acid, calcium salt): not significantly different
- Verbal communication, effect size (Cohen's d) ([1]; glutathione redox ratio low N=24): 0.95
- Verbal communication, estimated effect vs placebo ([1]; glutathione redox ratio low N=24, calcium salt): 9.1 standardized score
- Verbal communication, estimated effect vs placebo ([1]; glutathione redox ratio low N=24, listed as folinic acid, calcium salt): significantly greater
- Verbal communication, effect size (Cohen's d) ([1]; overall N=48): 0.70
- Verbal communication, estimated effect vs placebo ([1]; overall N=48, calcium salt): 5.7 standardized score
- Verbal communication, 12 weeks ([1]; FRAA antibody negative, baseline 57.9): 64.5 standardized score
- Verbal communication, 12 weeks ([1]; FRAA antibody positive, baseline 58.1): 66.1 standardized score
- Verbal communication, 12 weeks ([1]; glutathione redox ratio high, baseline 59.2): 65.0 standardized score
- Verbal communication, 12 weeks ([1]; glutathione redox ratio low, baseline 56.1): 66.0 standardized score
- Verbal communication, 12 weeks ([1]; overall, baseline 58.1): 65.4 standardized score
- % Difference responders (folinic acid vs placebo) ([1]; antibody negative): 21%
- Adjusted odds ratio of response ([1]; antibody negative): 3.6
- Number needed to treat ([1]; antibody negative): 4.7
- Unadjusted odds ratio of response ([1]; antibody negative): 2.5
- % responders [1, 3]: 50%
- Number of responders (increase in five standardized points, verbal communication) [1, 3]: 5
- % Difference responders (folinic acid vs placebo) ([1]; antibody positive): 55% (19%,
- Adjusted odds ratio of response ([1]; antibody positive): 67.4
- Number needed to treat ([1]; antibody positive): 1.8
- Unadjusted odds ratio of response ([1]; antibody positive): 11.7
- % responders [1, 4]: 77%
- Number of responders (increase in five standardized points, verbal communication) [1, 4]: 10
- % Difference responders (folinic acid vs placebo) ([1]; glutathione high): 34% (−4%,
- Adjusted odds ratio of response ([1]; glutathione high): 21.9
- Number needed to treat ([1]; glutathione high): 2.9
- Unadjusted odds ratio of response ([1]; glutathione high): 4.2
- % responders [1, 5]: 64%
- Number of responders (increase in five standardized points, verbal communication) [1, 5]: 9
- % Difference responders (folinic acid vs placebo) ([1]; glutathione low): 47% (10%,
- Adjusted odds ratio of response ([1]; glutathione low): 10.2
- Number needed to treat ([1]; glutathione low): 2.1
- Unadjusted odds ratio of response ([1]; glutathione low): 8.0
- % responders [1, 6]: 67%
- Number of responders (increase in five standardized points, verbal communication) [1, 6]: 6
- Adjusted odds ratio of response ([1]; overall): 14.9
- Number needed to treat ([1]; overall): 2.4
- Unadjusted odds ratio of response ([1]; overall): 5.9
- % responders ([1]; overall, folinic acid N = 23): 65%
- Number of responders (increase in five standardized points, verbal communication) ([1]; overall, folinic acid N = 23): 15
- % Difference responders (folinic acid vs placebo) ([1]; overall, calcium salt): 41% (13%,
- % Difference responders (folinic acid vs placebo) ([1]; overall, listed as folinic acid, calcium salt): significantly more responders
- Adverse effects, difference between treatment groups (folinic acid vs placebo) ([2]; 2 mg kg^−1 per day, 12 weeks, Fisher exact test, calcium salt): no significant difference; also recorded: no significant group differences
- Aggression, incidence [2, 7]: (10%)
- Any adverse effect, incidence [2, 7]: (57%)
- Blurred vision, incidence [2, 7]: (0%)
- Confusion, incidence [2, 7]: (5%)
- Constipation, incidence [2, 7]: (10%)
- Decreased appetite, incidence [2, 7]: (10%)
- Decreased motor activity, incidence [2, 7]: (0%)
- Depression, incidence [2, 7]: (5%)
- Diarrhea, incidence [2, 7]: (5%)
- Dizziness, incidence [2, 7]: (0%)
- Drowsiness, incidence [2, 7]: (0%)
- Dry mouth, excessive thirst, incidence [2, 7]: (14%)
- Emotional lability, incidence [2, 7]: (5%)
- Excitement or agitation, incidence [2, 7]: (29%)
- Gastroesophageal reflux, incidence [2, 7]: (5%)
- Headache, incidence [2, 7]: (10%)
- Increased motor activity, incidence [2, 7]: (29%)
- Increased salivation, incidence [2, 7]: (0%)
- Increased tantrums, incidence [2, 7]: (5%)
- Insomnia, incidence [2, 7]: (29%)
- Involuntary movements, incidence [2, 7]: (10%)
- Nasal congestion, incidence [2, 7]: (0%)
- Nausea/vomiting, incidence [2, 7]: (0%)
- Rash, incidence [2, 7]: (0%)
- Restlessness, incidence [2, 7]: (14%)
- Stiffness, incidence [2, 7]: (5%)
- Sweating, incidence [2, 7]: (0%)
- Tremors, incidence [2, 7]: (0%)
- Weight gain, incidence [2, 7]: (10%)
- Weight loss, incidence [2, 7]: (5%)
- Serious adverse events ([2]; folinic acid group, 2 mg kg^−1 per day, 12 weeks): no serious adverse events
